From patent US10093660B2, “Sulfoximine substituted quinazolines for pharmaceutical compositions” (EVOTEC INTERNATIONAL GMBH, priority 2013, dated 2018) come the findings set out here.

The structures appear in SMILES notation.

For one experiment, the target named is MNK2a (Homo sapiens (Human), UniProt Q9HBH9). Description: MNK2a in vitro kinase assay (Assay 2), ADP-Glo. The settings on record: assay 2; read-out: MNK2 IC50. Type of experiment: biochemical. The source says: B. MNK2a In Vitro Kinase Assay (Assay 2)
Chain of MNK2a (Q9HBH9 whole entry): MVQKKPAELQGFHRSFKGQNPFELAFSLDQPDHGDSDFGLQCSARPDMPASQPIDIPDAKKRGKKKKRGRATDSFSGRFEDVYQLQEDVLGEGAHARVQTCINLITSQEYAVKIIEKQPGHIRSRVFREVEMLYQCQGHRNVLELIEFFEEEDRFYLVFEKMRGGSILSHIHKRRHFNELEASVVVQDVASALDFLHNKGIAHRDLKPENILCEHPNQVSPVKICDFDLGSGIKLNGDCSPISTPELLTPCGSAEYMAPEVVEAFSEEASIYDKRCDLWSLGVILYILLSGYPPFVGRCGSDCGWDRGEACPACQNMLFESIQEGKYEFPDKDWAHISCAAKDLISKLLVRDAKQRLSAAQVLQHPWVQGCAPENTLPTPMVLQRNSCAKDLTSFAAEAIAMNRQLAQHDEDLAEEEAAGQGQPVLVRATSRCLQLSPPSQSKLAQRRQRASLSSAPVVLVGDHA
Another experiment has as its target MNK1a (Homo sapiens (Human), UniProt Q9BUB5). Description: MNK1 in vitro kinase assay (Assay 3), Z'-LYTE. Type of experiment: biochemical. The note with it: for inhibition at 1 µM: compound concentration of 1 μM, read-out: MNK1 % INH. The source says: C. MNK1 In Vitro Kinase Assay (Assay 3)
MNK1 Data can be obtained from the MNK1 Z′-LYTE® assay. The MNK1 Z′-LYTE® screening protocol and assay conditions are also described on www.invitrogen.com.
The assay is described as follows:
The Z′-LYTE® biochemical assay employs a fluorescence-based, coupled-enzyme format and is based on the differential sensitivity of phosphorylated and non-phosphorylated peptides to proteolytic cleavage. The peptide substrate is labeled with two fluorophores—one at each end—that make up a FRET pair.
In the primary reaction, the kinase transfers the gamma-phosphate of ATP to a single tyrosine, serine or threonine residue in a synthetic FRET-peptide. In the secondary reaction, a site-specific protease recognizes and cleaves non-phosphorylated FRET-peptides. Phosphorylation of FRET-peptides suppresses cleavage by the Development Reagent. Cleavage disrupts FRET between the donor (i.e., coumarin) and acceptor (i.e., fluorescein) fluorophores on the FRET-peptide, whereas uncleaved, phosphorylated FRET-peptides maintain FRET. A ratiometric method, which calculates the ratio (the Emission Ratio) of donor emission to acceptor emission after excitation of the donor fluorophore at 400 nm, is used to quantitate reaction progress, as shown in the equation below.
The 2×MKNK1 (MNK1) mixture is prepared in 50 mM HEPES pH 7.5, 0.01% BRIJ-35, 10 mM MgCl2, 4 mM MnCl2, 1 mM EGTA, 2 mM DTT.
The Test Compounds are screened in 1% DMSO (final) in the well.
All Peptide/Kinase Mixtures are diluted to a 2× working concentration in the MNK1 Kinase Buffer.
All ATP Solutions are diluted to a 4× working concentration in Kinase Buffer (50 mM HEPES pH 7.5, 0.01% BRIJ-35, 10 mM MgCl2, 1 mM EGTA).
Development Reagent Solution:
The Development Reagent is diluted in Development Buffer
1. 2.5 μL—4× Test Compound
2. 5 μL—2× Peptide/Kinase Mixture
5. 60-minute Kinase Reaction incubation at room temperature
6. 5 μL—Development Reagent Solution
8. 60-minute Development Reaction incubation at room temperature
9. Read on fluorescence plate reader and analyze the data
Control C0%=Average Coumarin emission signal of the 0% Phos. Control F100%=Average Fluorescein emission signal of the 100% Phos. Control F0%=Average Fluorescein emission signal of the 0% Phos. Control Graphing Software
SelectScreen® Kinase Profiling Service uses XLfit from IDBS. […] The activity of MNK proteins can be assayed also by other in vitro kinase assay formats. […] In general, MNK kinase assays can be performed such that a MNK substrate such as a protein or a peptide, which may or may not include modifications as further described below, or others are phosphorylated by MNK proteins having enzymatic activity in vitro. The activity of a candidate agent can then be determined via its ability to decrease the enzymatic activity of the MNK protein. The kinase activity may be detected by change of the chemical, physical or immunological properties of the substrate due to phosphorylation.

As a reminder, the IC50 is the concentration at which inhibition is half-maximal.

Chain of MNK1a (Q9BUB5 other isoform, or with tags, fused parts or gaps): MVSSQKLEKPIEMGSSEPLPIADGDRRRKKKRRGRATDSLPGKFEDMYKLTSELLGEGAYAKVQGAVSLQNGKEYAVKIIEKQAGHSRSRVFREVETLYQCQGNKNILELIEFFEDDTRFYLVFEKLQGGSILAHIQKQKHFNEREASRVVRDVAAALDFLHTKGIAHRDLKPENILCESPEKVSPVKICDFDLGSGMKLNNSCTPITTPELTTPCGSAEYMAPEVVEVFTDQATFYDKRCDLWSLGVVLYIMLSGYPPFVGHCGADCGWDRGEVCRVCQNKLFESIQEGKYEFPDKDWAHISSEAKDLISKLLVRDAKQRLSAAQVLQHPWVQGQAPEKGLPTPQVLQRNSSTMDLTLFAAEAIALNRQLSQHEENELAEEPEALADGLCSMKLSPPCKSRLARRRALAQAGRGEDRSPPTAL

With `Cc1cc(N=S(C)(C)=O)cc2ncnc(Nc3cccnc3O[C@@H]3COC[C@@H]3O)c12` (racemic) [Example 2.4], the IC50 on MNK2a stood at 17 nM. For the same compound, the inhibition at 1 µM at MNK1a turned out to be 93%.
The matching figures for `Cc1cc(N=S2(=O)CCCC2)cc2ncnc(Nc3ccc(F)cc3O[C@H]3COC[C@H]3O)c12` (racemic) [Example 2.8]: 2 nM and 100%.
The like results for `CO[C@@H]1COC[C@@H]1Oc1cc(F)ccc1Nc1ncnc2cc(N=S3(=O)CCCC3)cc(C)c12` (racemic) [Example 2.10] were, in that order, 2 nM and 105%.
On to `Cc1cc(N=S2(=O)CCCC2)cc2ncnc(Nc3cccnc3O[C@H]3COC[C@H]3OCCF)c12` (racemic) [Example 2.25], for which the IC50 at MNK2a was 2 nM; on MNK1a, 46 nM.
Turning to `CO[C@H]1COC[C@@H]1Oc1ncccc1Nc1ncnc2cc(N=S3(=O)CCCC3)cc(C)c12` (racemic) [Example 2.39], the IC50 on MNK2a amounted to 7 nM. For the same compound, the inhibition at 1 µM at MNK1a is 86%.
Regarding `CS(C)(=O)=Nc1cc(F)c2c(Nc3ccc(F)cc3O[C@H]3COC[C@H]3O)ncnc2c1` (racemic) [Example 2.52], the IC50 on MNK2a worked out at 15 nM. Also, the inhibition at 1 µM at MNK1a came to 97%.
The like results for `CO[C@@H]1CCC(Oc2cc(F)ccc2Nc2ncnc3cc(N=S4(=O)CCC4)cc(C)c23)CO1` (mixture of isomers) [Example 2.56] were, in that order, 2 nM and 95%.
`CO[C@@H]1COC[C@@H]1Oc1cc(F)ccc1Nc1ncnc2cc(N=S(C)(C)=O)cc(F)c12` (racemic) [Example 2.57]: the IC50 at MNK2a was 6 nM. Further, the inhibition at 1 µM on MNK1a was determined as 82%.
`Cc1cc(N=S(C)(=O)C2CCOCC2)cc2ncnc(Nc3ccc(F)cc3O[C@@H]3COC[C@@H]3O)c12` (mixture of isomers) [Example 2.65]: the IC50 at MNK2a came out at 10 nM. For the same compound, the inhibition at 1 µM at MNK1a was 100%.
The like results for `Cc1cc(N=S(C)(=O)C(C)(C)C)cc2ncnc(Nc3ccc(F)cc3O[C@@H]3COC[C@@H]3O)c12` (mixture of isomers) [Example 2.68] were, in that order, 11 nM and 94%.
The like results for `Cc1cc(N=S(C)(=O)c2cccnc2)cc2ncnc(Nc3ccc(F)cc3O[C@@H]3COC[C@@H]3O)c12` (mixture of isomers) [Example 2.70] were, in that order, 10 nM and 92%.
The like results for `Cc1cc(N=S(C)(=O)C(C)C)cc2ncnc(Nc3ccc(F)cc3O[C@@H]3COC[C@@H]3O)c12` (mixture of isomers) [Example 2.71] were, in that order, 6 nM and 94%.
For the compound `Cc1cc(N=S2(=O)CCC(O)CC2)cc2ncnc(Nc3ccc(F)cc3O[C@@H]3COC[C@@H]3O)c12` (mixture of isomers) [Example 2.76], on MNK2a, the 50% inhibitory concentration (IC50) turned out to be 7 nM. Besides, the inhibition at 1 µM at MNK1a came out at 96%.
The like results for `Cc1cc(N=S2(=O)CCC(C)C2)cc2ncnc(Nc3ccc(F)cc3O[C@@H]3COC[C@@H]3O)c12` (mixture of isomers) [Example 2.83] were, in that order, 4 nM and 97%.
The matching figures for `CC(=O)O[C@@H]1COC[C@@H]1Oc1cc(F)ccc1Nc1ncnc2cc(N=S(C)(C)=O)cc(C)c12` (racemic) [Example 6.9]: 7 nM and 90%.
The like results for `COCCO[C@@H]1COC[C@@H]1Oc1cc(F)ccc1Nc1ncnc2cc(N=S(C)(C)=O)cc(C)c12` (racemic) [Example 7.1] were, in that order, 45 nM and 62%.
On to `Cc1cc(N=S(C)(C)=O)cc2ncnc(Nc3ccc(F)cc3O[C@H]3COC[C@H]3OCC3CC3)c12` (racemic) [Example 7.2], for which the IC50 at MNK2a is 6 nM. Also, at MNK1a, the inhibition at 1 µM is 94%.
The matching figures for `Cc1cc(N=S(C)(C)=O)cc2ncnc(Nc3ccc(F)cc3O[C@H]3COC[C@H]3OC3COC3)c12` (racemic) [Example 7.3]: 7 nM and 93%.
On to `COc1cc(N=S2(=O)CCC2)cc2ncnc(Nc3cccnc3O[C@H]3COC[C@H]3O)c12` (racemic) [Example 8.4], for which the IC50 on MNK2a was 11 nM; against MNK1a, 104 nM.
For `COc1cc(N=S2(=O)CCCC2)cc2ncnc(Nc3cccnc3O[C@H]3COC[C@H]3O)c12` (racemic) [Example 8.5], the IC50 at MNK2a came to 21 nM. The inhibition at 1 µM on MNK1a stood at 97%.
The matching figures for `COc1cc(N=S(C)(C)=O)cc2ncnc(Nc3ccc(F)cc3O[C@H]3COC[C@H]3OC)c12` (racemic) [Example 9.1]: 2 nM and 96%.
The matching figures for `COc1cc(N=S2(=O)CCCC2)cc2ncnc(Nc3ccc(F)cc3O[C@H]3COC[C@H]3OC)c12` (racemic) [Example 9.2]: 2 nM and 94%.
The like results for `COc1cc(N=S(C)(C)=O)cc2ncnc(Nc3ccc(F)cc3O[C@H]3COC[C@H]3O)c12` (racemic) [Example 9.3] were, in that order, 26 nM and 90%.
On to `COc1cc(N=S2(=O)CCCC2)cc2ncnc(Nc3ccc(F)cc3O[C@H]3COC[C@H]3O)c12` (racemic) [Example 9.13], for which the IC50 at MNK2a was 6 nM. Also, the inhibition at 1 µM at MNK1a turned out to be 99%.
Turning to `COc1cc(N=S2(=O)CCC2)cc2ncnc(Nc3ccc(F)cc3O[C@H]3COC[C@H]3O)c12` (racemic) [Example 9.16], on MNK2a, the IC50 was 7 nM. For the same compound, on MNK1a, the inhibition at 1 µM was 98%.
As to `Cc1cc(N=S2(=O)CCCC2)cc2ncnc(Nc3ccc(F)cc3O[C@H]3COC[C@H]3OCCF)c12` (racemic) [Example 10.1], the IC50 at MNK2a turned out to be 1 nM; against MNK1a, 55 nM.
Consider `Cc1cc(N=S(C)(C)=O)cc2ncnc(Nc3ccc(F)cc3O[C@H]3COC[C@H]3OCCF)c12` (racemic) [Example 10.2], for which, at MNK2a, the IC50 stood at 2 nM. The inhibition at 1 µM at MNK1a came to 93%.
In the case of `Cc1cc(N=S(C)(C)=O)cc2ncnc(Nc3ccc(F)cc3O[C@H]3COC[C@H]3OCC(F)F)c12` (racemic) [Example 10.3], the IC50 on MNK2a amounted to 3 nM; against MNK1a, 41 nM.
For `Cc1cc(N=S2(=O)CCCC2)cc2ncnc(Nc3ccc(F)cc3O[C@H]3COC[C@H]3OCC(F)F)c12` (racemic) [Example 10.4], at MNK2a, the IC50 is 3 nM. Besides, at MNK1a, the inhibition at 1 µM worked out at 104%.
The like results for `CO[C@@H]1C=C[C@@H](Oc2cc(F)ccc2Nc2ncnc3cc(N=S(C)(C)=O)cc(C)c23)CO1` (racemic) [Example 13.1] were, in that order, 6 nM and 96%.
The like results for `CO[C@@H]1COC[C@H]1Oc1cc(F)ccc1Nc1ncnc2cc(N=S(C)(C)=O)cc(C)c12` (racemic) [Example 13.2] were, in that order, 13 nM and 69%.
The like results for `O=S1(=Nc2cc(Cl)c3c(Nc4ccc(F)cc4O[C@@H]4COC[C@@H]4O)ncnc3c2)CCC1` (single isomer, unassigned) [Example 1.34] were, in that order, 3 nM and 97%.
Regarding `O=S1(=Nc2cc(Cl)c3c(Nc4ccc(F)cc4O[C@H]4COC[C@H]4O)ncnc3c2)CCC1` (single isomer, unassigned) [Example 1.35], the IC50 came out at 1 nM on MNK2a and 25 nM at MNK1a.
On to `CO[C@H]1COC[C@H]1Oc1ncccc1Nc1ncnc2cc(N=S3(=O)CCCC3)cc(C)c12` (single isomer, unassigned) [Example 14.1], for which the concentration for half-maximal inhibition (IC50) at MNK2a is 1 nM. Besides, the inhibition at 1 µM on MNK1a is 97%.
The like results for `CO[C@@H]1COC[C@@H]1Oc1ncccc1Nc1ncnc2cc(N=S3(=O)CCCC3)cc(C)c12` (single isomer, unassigned) [Example 14.2] were, in that order, 10 nM and 86%.
Turning to `Cc1cc(N=S2(=O)CCCC2)cc2ncnc(Nc3ccc(F)cc3O[C@@H]3COC[C@@H]3O)c12` (single isomer, unassigned) [Example 14.5], the IC50 on MNK2a worked out at 3 nM. For the same compound, the inhibition at 1 µM on MNK1a was 99%.
The like results for `Cc1cc(N=S2(=O)CCCC2)cc2ncnc(Nc3ccc(F)cc3O[C@H]3COC[C@H]3O)c12` (single isomer, unassigned) [Example 14.6] were, in that order, 2 nM and 101%.
